The values that follow come from article PMC4306921 (Scientific Reports, 2015).

Holding throughout (type): cell-based
For one assay, the system named is 293T cells. The conditions noted are these: no receptor plasmid, 10 μM 5-HT, 12–24 h.
The subject of another assay is CHO-K1 cells. The conditions noted are these: CHO-K1, no receptor plasmid, 10 μM 5-HT, 12–24 h.
Another assay concerns adenylyl cyclase. As to the kind of experiment: FSK stimulation in the CRE-luc reporter gene assay system. To be noted: read-out: EC50 value of FSK in reporter gene assay system; data not shown. (Reporter assays use an easily measured gene product as a stand-in for the process of interest.)
The target in a further assay is 5-HT2A receptor (Homo sapiens, UniProt P28223). As to the kind of experiment: CRE-luc luciferase reporter gene assay, 5-HT2A transfected CHO-K1 cells. To be noted: 5-HT2A transfected cells, 0.1 μM antagonist, 5-HT lower than 1 μM.
Sequence of 5-HT2A receptor (P28223 whole entry): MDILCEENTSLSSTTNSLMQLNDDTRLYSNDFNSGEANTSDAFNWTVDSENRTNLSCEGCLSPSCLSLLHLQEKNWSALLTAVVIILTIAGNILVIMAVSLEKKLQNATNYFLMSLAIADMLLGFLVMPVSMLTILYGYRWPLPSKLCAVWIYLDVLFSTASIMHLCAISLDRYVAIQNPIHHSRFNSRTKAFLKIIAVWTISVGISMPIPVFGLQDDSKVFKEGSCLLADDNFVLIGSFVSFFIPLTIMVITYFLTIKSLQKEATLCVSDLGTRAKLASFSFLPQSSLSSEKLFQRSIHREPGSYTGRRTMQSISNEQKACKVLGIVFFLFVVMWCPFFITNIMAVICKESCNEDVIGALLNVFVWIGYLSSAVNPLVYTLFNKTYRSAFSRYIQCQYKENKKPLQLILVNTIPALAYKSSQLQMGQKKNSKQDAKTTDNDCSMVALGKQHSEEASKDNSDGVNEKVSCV

On to `NCCc1c[nH]c2ccc(O)cc12` [5-HT], for which the “nonspecific/endogenous activation of CRE-luc by 5-HT” value was “significantly expression of luciferase was detected” in the assay on 293T cells; “no nonspecific and endogenous activation was observed” with CHO-K1 cells. Broadly, the EC50 is the concentration needed to bring the measured effect to its halfway point. In the case of `C=C[C@@]1(C)CC(=O)[C@]2(O)[C@@]3(C)[C@@H](O)CCC(C)(C)[C@@H]3[C@H](O)[C@H](OC(C)=O)[C@@]2(C)O1` [FSK], the half-maximal effective concentration (EC50) in the assay on adenylyl cyclase was 780 nM. On to `CSc1ccc2c(c1)C(N1CCN(C)CC1)Cc1ccccc1S2` (stereo not shown) [Methiothepin], for which the “suppression of luciferase reporter gene expression” value on 5-HT2A receptor was “significantly suppress”.
